One series addresses IMP-1 (Serratia marcescens, UniProt P52699). Description: biochemical. Conditions: CCF2-FA fluorescence assay, 2 hours at 25° C.; read-out: IMP1 IC50. The essentials: (§1)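 In pH 7 phosphate buffer (100 mM) with 10 μM ZnSO4 and 0.005% Tween-20, CCF2-FA hydrolysis (1.25 μM) by 1 pM NDM-1, 2 pM IMP-1 or 30 pM VIM-1 was run 2 h at 25° C with inhibitor from 20 to 0.00063 μM. Ex 405/em 460 nm signal fitted to a 4-parameter curve for IC50.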

A further series concerns the target VIM-1 (Pseudomonas aeruginosa (strain ATCC 15692 / DSM 22644 / CIP 104116 / JCM 14847 / LMG 12228 / 1C / PRS 101 / PAO1), UniProt A0A0F7KYQ8). Description: biochemical. To be noted: CCF2-FA fluorescence assay, 2 hours at 25° C.; read-out: VIM1 IC50. The method in brief: as §1
The test system of series [1] is Serratia marcescens expressing IMP-1 (CL5741). It counts as cell-based. Conditions: with imipenem 1 μg/ml; 95% inhibition of bacterial growth. The essentials:
(§2)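 Clinical MBL-producing strains grown overnight at 35° C, diluted 1:100 into CAMHB, then exposed to test compound with imipenem at 1 μg/ml for 22–24 h at 35° C. Absorbance read-out; MITC95 is the lowest compound concentration giving 95% growth inhibition with imipenem.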

Series [2] concerns Escherichia coli expressing NDM-1 (CLB30016). It counts as cell-based. To be noted: with imipenem 1 μg/ml; 95% inhibition of bacterial growth. The essentials:
as §2

Series [3] concerns Klebsiella pneumoniae expressing VIM-1 (IHMA599644). It counts as cell-based. Conditions: with imipenem 1 μg/ml; 95% inhibition of bacterial growth. The essentials: as §2
A further series deals with VIM-2 (Escherichia coli, UniProt Q5U7L7). Description: biochemical. Conditions: CCF2-FA fluorescence assay; read-out: VIM2 IC50.
Series [4] deals with P. aeruginosa MB9799 (efflux-, IMP-1 plasmid). It counts as cell-based, Pseudomonas aeruginosa. To be noted: efflux − (MB9799) strain; imipenem at 2 μg/mL; in the presence of a class A, C, D serine β-lactamase inhibitor closely related to relebactam. The essentials:
(§3)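 Isogenic P. aeruginosa PAO1 strains (efflux+ and multiple-efflux-pump-disrupted) carrying plasmid IMP-1, with inducible AmpC, tested by broth microdilution. Imipenem and/or ceftazidime fixed, usually at CLSI breakpoint, plus fixed class A/C β-lactamase inhibitor; titrated MBL inhibitor concentration restoring susceptibility recorded and compared between strains as efflux fold difference.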

The test system of series [5] is P. aeruginosa MB9798 (efflux+, IMP-1 plasmid). To be noted: for MB9798 MITC95 P. aeruginosa uM Efflux WT: efflux + (MB9798) strain, imipenem at 2 μg/mL, in the presence of a class A, C, D serine β-lactamase inhibitor closely related to relebactam; for Efflux ratio: fold difference between efflux+ (MB9798) and efflux− (MB9799) strains. The essentials:
as §3

Another series has as its target NDM-1 (Klebsiella pneumoniae, UniProt C7C422). Description: biochemical. It counts as biochemical. To be noted: CCF2-FA fluorescence assay, 2 hours at 25° C. The method in brief:
as §1

Chain of IMP-1 (P52699 whole entry, looked up, species assumed): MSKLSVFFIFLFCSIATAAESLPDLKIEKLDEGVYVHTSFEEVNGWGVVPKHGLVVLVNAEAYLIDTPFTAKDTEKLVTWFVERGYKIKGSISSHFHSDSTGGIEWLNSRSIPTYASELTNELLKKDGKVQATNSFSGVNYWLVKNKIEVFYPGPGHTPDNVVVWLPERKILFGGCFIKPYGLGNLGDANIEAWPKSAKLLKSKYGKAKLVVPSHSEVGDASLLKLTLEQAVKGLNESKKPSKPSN
Chain of NDM-1 (C7C422 whole entry, looked up, species assumed): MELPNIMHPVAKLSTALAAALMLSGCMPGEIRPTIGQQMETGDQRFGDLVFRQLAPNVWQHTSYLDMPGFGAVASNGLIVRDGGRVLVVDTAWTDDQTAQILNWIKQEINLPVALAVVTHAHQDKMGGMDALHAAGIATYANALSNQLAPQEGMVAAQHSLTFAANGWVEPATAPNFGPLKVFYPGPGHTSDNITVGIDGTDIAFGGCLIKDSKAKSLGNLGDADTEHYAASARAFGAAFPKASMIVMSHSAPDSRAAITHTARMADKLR

Broadly, the IC50 is the point on the concentration scale where inhibition reaches its midpoint. In the case of `NC[C@@H](O)CNS(=O)(=O)c1ccc(N2CCC(O)CC2)c(-c2nn[nH]n2)c1S(N)(=O)=O` [Example 120, (R)-N1-(3-amino-2-hydroxypropyl)-4-(4-hydroxypiperidin-1-yl)-3-(2H-tetrazol-5-yl)benzene-1,2-disulfonamide], the IC50 turned out to be 0.76 nM on IMP-1, 0.26 nM on VIM-1, 0.79 nM on VIM-2 and 0.56 nM on NDM-1. Moreover, the “CL5741 S. marcescens MITC95 IMP” value in series [1] came out at 1.56 µM. In series [2], the “CLB30016 E. coli MITC95 NDM” value stood at 1.56 µM. In addition, the “IHMA599644 K. pneumoniae MITC95 VIM” value in series [3] stood at 3.13 µM. Also, the “MB9799 MITC95 P. aeruginosa uM Efflux Mutant” value in series [4] stood at 1.56 µM. Moreover, in [5], the “MB9798 MITC95 P. aeruginosa uM Efflux WT” value is 1.56 µM. Besides, the Efflux ratio in [5] worked out at 1.00.

As to `NS(=O)(=O)c1c(S(=O)(=O)N[C@@H]2CCNC2)ccc(N2CC(N3CCCCC3)C2)c1-c1nnn[nH]1` [Example 112, 4-(3-piperidin-1-ylazetidin-1-yl)-N1-[(3R)-pyrrolidin-3-yl]-3-(1H-tetrazol-5-yl)benzene-1,2-disulfonamide], the IC50 stood at 15 nM at IMP-1, 2.9 nM at VIM-1, 16.6 nM at VIM-2 and 8.98 nM against NDM-1. For the same compound, in [1], the “CL5741 S. marcescens MITC95 IMP” value was 1.56 µM. Further, the “CLB30016 E. coli MITC95 NDM” value in series [2] turned out to be 0.78 µM. The “IHMA599644 K. pneumoniae MITC95 VIM” value in series [3] worked out at 3.13 µM. In addition, in series [4], the “MB9799 MITC95 P. aeruginosa uM Efflux Mutant” value was determined as 1.56 µM. The “MB9798 MITC95 P. aeruginosa uM Efflux WT” value in series [5] came out at 50.00 µM. The Efflux ratio in [5] is 31.99.

Take `NC[C@@H](O)CNS(=O)(=O)c1ccc(N2CCN3CCOCC3C2)c(-c2nn[nH]n2)c1S(N)(=O)=O` (stereo partly drawn) [Example 129, N1-((R)-3-amino-2-hydroxypropyl)-4-(hexahydropyrazino [2,1-c][1,4]oxazin-8(1H)-yl)-3-(2H-tetrazol-5-yl)benzene-1,2-disulfonamide 2,2,2-trifluoroacetate]: the IC50 on IMP-1 came to 4.72 nM; on VIM-1, 3.53 nM; at VIM-2, 6.44 nM; at NDM-1, 2.7 nM. Also, the “CL5741 S. marcescens MITC95 IMP” value in [1] was found to be 3.13 µM. For the same compound, the “CLB30016 E. coli MITC95 NDM” value in [2] was 6.25 µM. For the same compound, in [3], the “IHMA599644 K. pneumoniae MITC95 VIM” value is 12.50 µM. The “MB9799 MITC95 P. aeruginosa uM Efflux Mutant” value in [4] is 3.13 µM. In series [5], the “MB9798 MITC95 P. aeruginosa uM Efflux WT” value amounted to 6.25 µM. Further, in [5], the Efflux ratio was found to be 2.00.

In the case of `NS(=O)(=O)c1c(S(=O)(=O)N[C@@H]2CCNC2)ccc(N2CCC(CCF)CC2)c1-c1nnn[nH]1` [Example 87, 4-[4-(2-fluoroethyl)piperidin-1-yl]-N1-[(3R)-pyrrolidin-3-yl]-3-(1H-tetrazol-5-yl)benzene-1,2-disulfonamide], the IC50 at IMP-1 was 0.24 nM; at VIM-1, 0.12 nM; at VIM-2, 0.49 nM; on NDM-1, 0.16 nM. Besides, the “CL5741 S. marcescens MITC95 IMP” value in series [1] came out at 3.13 µM. Also, the “CLB30016 E. coli MITC95 NDM” value in series [2] is 1.56 µM. Also, in [3], the “IHMA599644 K. pneumoniae MITC95 VIM” value was 3.13 µM. Further, in series [4], the “MB9799 MITC95 P. aeruginosa uM Efflux Mutant” value was 1.56 µM. Further, in series [5], the “MB9798 MITC95 P. aeruginosa uM Efflux WT” value was found to be 12.50 µM. In [5], the Efflux ratio came to 8.00.

As for `NS(=O)(=O)c1c(S(=O)(=O)N[C@@H]2CCNC2)ccc(N2CCCC(O)C2=O)c1-c1nn[nH]n1` (stereo partly drawn) [Example 148, 4-(3-hydroxy-2-oxopiperidin-1-yl)-N1-((R)-pyrrolidin-3-yl)-3-(2H-tetrazol-5-yl)benzene-1,2-disulfonamide], the IC50 is 28.1 nM on IMP-1, 0.35 nM on VIM-1, 1.5 nM on VIM-2 and 0.76 nM on NDM-1. The “CL5741 S. marcescens MITC95 IMP” value in series [1] came out at 1.56 µM. The “CLB30016 E. coli MITC95 NDM” value in series [2] amounted to 0.39 µM. Further, the “IHMA599644 K. pneumoniae MITC95 VIM” value in series [3] is 3.13 µM. In series [4], the “MB9799 MITC95 P. aeruginosa uM Efflux Mutant” value came to 1.56 µM. Moreover, the “MB9798 MITC95 P. aeruginosa uM Efflux WT” value in [5] worked out at 3.13 µM. For the same compound, the Efflux ratio in series [5] came out at 2.00.

Take `COC1(CO)CCN(c2ccc(S(=O)(=O)NC[C@H](O)CN)c(S(N)(=O)=O)c2-c2nn[nH]n2)CC1` [Example 21, (R)-N^1-(3-amino-2-hydroxypropyl)-4-(4-(hydroxymethyl)-4-methoxypiperidin-1-yl)-3-(2H-tetrazol-5-yl)benzene-1,2-disulfonamide]: the IC50 at IMP-1 came to 0.56 nM; at VIM-1, 1.13 nM; at VIM-2 it was 2.7 nM; on NDM-1, 0.41 nM. The “CL5741 S. marcescens MITC95 IMP” value in [1] amounted to 6.25 µM. The “CLB30016 E. coli MITC95 NDM” value in series [2] came out at 12.50 µM. In series [3], the “IHMA599644 K. pneumoniae MITC95 VIM” value stood at 12.50 µM. The “MB9799 MITC95 P. aeruginosa uM Efflux Mutant” value in [4] is 3.13 µM. In addition, the “MB9798 MITC95 P. aeruginosa uM Efflux WT” value in series [5] is 3.13 µM. The Efflux ratio in series [5] is recorded as 1.00.

Consider `NC[C@@H]1CCN(c2ccc(S(=O)(=O)N[C@@H]3CCNC3)c(S(N)(=O)=O)c2-c2nn[nH]n2)C[C@@H]1F` (racemic) [Example 7], for which the IC50 on IMP-1 was found to be 3.49 nM; on VIM-1 it was 0.24 nM; on VIM-2, 4.46 nM; at NDM-1, 0.68 nM. The “CL5741 S. marcescens MITC95 IMP” value in series [1] was found to be 0.39 µM. In [2], the “CLB30016 E. coli MITC95 NDM” value was found to be 0.20 µM. The “IHMA599644 K. pneumoniae MITC95 VIM” value in series [3] turned out to be 0.78 µM. Moreover, the “MB9799 MITC95 P. aeruginosa uM Efflux Mutant” value in series [4] was found to be 0.39 µM. Also, the “MB9798 MITC95 P. aeruginosa uM Efflux WT” value in [5] turned out to be 0.78 µM. For the same compound, the Efflux ratio in series [5] was 2.00.

For `CNCC1CCN(c2ccc(S(=O)(=O)N[C@@H]3CCNC3)c(S(N)(=O)=O)c2-c2nnn[nH]2)CC1` [Example 74, 4-{4-[(methylamino)methyl]piperidin-1-yl}-N1-[(3R)-pyrrolidin-3-yl]-3-(1H-tetrazol-5-yl)benzene-1,2-disulfonamide], the IC50 at IMP-1 was 6.8 nM; on VIM-1, 0.45 nM; at VIM-2 it was 6.86 nM; against NDM-1 it was 3 nM. In [1], the “CL5741 S. marcescens MITC95 IMP” value turned out to be 1.56 µM. Besides, in series [2], the “CLB30016 E. coli MITC95 NDM” value came to 0.78 µM. Further, the “IHMA599644 K. pneumoniae MITC95 VIM” value in series [3] amounted to 3.13 µM. In addition, the “MB9799 MITC95 P. aeruginosa uM Efflux Mutant” value in series [4] turned out to be 0.78 µM. In series [5], the “MB9798 MITC95 P. aeruginosa uM Efflux WT” value amounted to 1.56 µM. The Efflux ratio in series [5] was determined as 2.00.

As to `N.NC[C@@H](O)CNS(=O)(=O)c1ccc(N2CCN(CC(=O)O)CC2)c(-c2nnn[nH]2)c1S(N)(=O)=O` [Example 137, ammonium (R)-2-(4-(4-(N-(3-amino-2-hydroxypropyl)sulfamoyl)-3-sulfamoyl-2-(1H-tetrazol-5-yl)phenyl)piperazin-1-yl)acetate], the IC50 on IMP-1 amounted to 4.97 nM; on VIM-1, 16.1 nM; on VIM-2 it was 15.3 nM; at NDM-1, 3.5 nM. In addition, the “CL5741 S. marcescens MITC95 IMP” value in [1] was found to be 1.56 µM. In [2], the “CLB30016 E. coli MITC95 NDM” value turned out to be 0.78 µM. For the same compound, in [3], the “IHMA599644 K. pneumoniae MITC95 VIM” value was 6.25 µM. The “MB9799 MITC95 P. aeruginosa uM Efflux Mutant” value in series [4] was 3.13 µM. For the same compound, the “MB9798 MITC95 P. aeruginosa uM Efflux WT” value in series [5] came to 6.25 µM. Besides, in [5], the Efflux ratio was 2.00.

Turning to `NC[C@H](N)CNS(=O)(=O)c1ccc(N2CCC(CO)CC2)c(-c2nnn[nH]2)c1S(N)(=O)=O` [Example 44, (S)-N1-(2,3-diaminopropyl)-4-(4-(hydroxymethyl)piperidin-1-yl)-3-(1H-tetrazol-5-yl)benzene-1,2-disulfonamide], the IC50 is 0.56 nM at IMP-1, 0.06 nM at VIM-1, 0.63 nM at VIM-2 and 0.36 nM against NDM-1. In series [1], the “CL5741 S. marcescens MITC95 IMP” value was 3.13 µM. Also, the “CLB30016 E. coli MITC95 NDM” value in [2] was determined as 3.13 µM. Also, in series [3], the “IHMA599644 K. pneumoniae MITC95 VIM” value worked out at 6.25 µM. Also, the “MB9799 MITC95 P. aeruginosa uM Efflux Mutant” value in series [4] came out at 1.56 µM. For the same compound, the “MB9798 MITC95 P. aeruginosa uM Efflux WT” value in series [5] is 3.13 µM. Also, the Efflux ratio in series [5] worked out at 2.00.

Values taken from patent publication US11207312B2, “Metallo-beta-lactamase inhibitors and methods of use thereof” (priority 2017, dated 2021).
